Data: ChEMBL document CHEMBL1201862, “PubChem BioAssay data set” (2004)
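In this assay, cells in 96-well plates receive the compound at five concentrations for 48 hours. Endpoints are linearly interpolated between the surrounding concentrations. GI50: concentration for 50% inhibition of growth.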 The source made the active and inactive calls. No stated cut-off is given here; in the data, active = GI50 up to about 1.1 µM and inactive = higher.

Legend:
Experiment in all cases: NCI tumour cell line growth inhibition, 48 h
[1] = tested on: UACC-257
[2] = tested on: HCT-116
[3] = tested on: SNB-19
[4] = tested on: OVCAR-8
[5] = tested on: NCI/ADR-RES
[6] = tested on: NCI-H23
[7] = tested on: K562
[8] = tested on: HOP-62
[9] = tested on: UACC-62
[10] = tested on: T47D
[11] = tested on: SW-620
[12] = tested on: HL-60
[13] = tested on: MDA-N
[14] = tested on: SR
[15] = tested on: SNB-75
[16] = tested on: SF-539
[17] = tested on: A549
[18] = tested on: PC-3
[19] = tested on: COLO 205
[20] = tested on: SK-OV-3

Row | Compound | GI50 [1] | GI50 [2] | GI50 [3] | GI50 [4] | GI50 [5] | GI50 [6] | GI50 [7] | GI50 [8] | GI50 [9] | GI50 [10] | GI50 [11] | GI50 [12] | GI50 [13] | GI50 [14] | GI50 [15] | GI50 [16] | GI50 [17] | GI50 [18] | GI50 [19] | GI50 [20]
1 | Cc1cc(C)c2c(=N)c3ccccc3n(CCCCCCCCn3c4ccccc4c(=N)c4c(C)cc(C)nc43)c2n1 | 1.75 µM (inactive) | 0.353 µM (active) | 0.282 µM (active) | 1.59 µM (inactive) | 1.6 µM (inactive) | 1.46 µM (inactive) | 0.19 µM (active) | 1.23 µM (inactive) | 1.73 µM (inactive) | 1.77 µM (inactive) | 0.238 µM (active) | 0.433 µM (active) | 1.56 µM (inactive) | 0.127 µM (active) | 0.596 µM (active) | 1.78 µM (inactive) | 1.38 µM (inactive) | 1.38 µM (inactive) | 1.47 µM (inactive) | 1.73 µM (inactive)
2 | Cc1cn([C@H]2C[C@H](O)[C@@H](CO)O2)c(=O)nc1N | > 100 µM (inactive) | > 100 µM (inactive) | > 100 µM (inactive) | > 100 µM (inactive) | > 100 µM (inactive) | > 100 µM (inactive) | > 100 µM (inactive) | > 100 µM (inactive) | > 100 µM (inactive) | > 100 µM (inactive) | > 100 µM (inactive) | > 100 µM (inactive) | > 100 µM (inactive) | > 100 µM (inactive) | > 100 µM (inactive) | > 100 µM (inactive) | > 100 µM (inactive) | > 100 µM (inactive) | > 100 µM (inactive) | > 100 µM (inactive)
3 | COc1ccc(/C=C2\C(=O)N(C3OC(COC(C)=O)C(OC(C)=O)C(OC(C)=O)C3OC(C)=O)c3ccccc3N=C2N)cc1 (stereo not given) | 24.5 µM (inactive) | 19.7 µM (inactive) | 42.7 µM (inactive) | 19.4 µM (inactive) | 20.5 µM (inactive) | 20 µM (inactive) | 11.9 µM (inactive) | 28.9 µM (inactive) | 17.5 µM (inactive) | 14 µM (inactive) | 30.7 µM (inactive) | 18.2 µM (inactive) | 4.48 µM (inactive) | 5.37 µM (inactive) | 23.2 µM (inactive) | 9.06 µM (inactive) | 29.2 µM (inactive) | 23.7 µM (inactive) | 15.6 µM (inactive) | 27.6 µM (inactive)
4 | CCCCCCOc1ccc(C(=O)NO)cc1 | 22.8 µM (inactive) | 8.53 µM (inactive) | 17.8 µM (inactive) | 5.08 µM (inactive) | 3.08 µM (inactive) | 7.03 µM (inactive) | 5.22 µM (inactive) | 11.8 µM (inactive) | 6.82 µM (inactive) | 5.83 µM (inactive) | 5.02 µM (inactive) | 1.81 µM (inactive) | 13.2 µM (inactive) | 1.19 µM (inactive) | 13.4 µM (inactive) | 11.3 µM (inactive) | 14.3 µM (inactive) | 9.51 µM (inactive) | 9.51 µM (inactive) | 10.5 µM (inactive)
5 | CCCC1=C(OC)C(=O)c2c(C)cc(Cl)nc2C1=O | 6.53 µM (inactive) | 2.62 µM (inactive) | 14.7 µM (inactive) | 8.89 µM (inactive) | 4.55 µM (inactive) | 4.11 µM (inactive) | 2.02 µM (inactive) | 15.5 µM (inactive) | 3.3 µM (inactive) | 2.99 µM (inactive) | 3.24 µM (inactive) | 1.45 µM (inactive) | 1.73 µM (inactive) | 2.11 µM (inactive) | 7.62 µM (inactive) | 7.43 µM (inactive) | 13.6 µM (inactive) | 9.08 µM (inactive) | 7.93 µM (inactive) | 17 µM (inactive)
6 | CCCCCCCCCCCCCCCCCCOC(COP(=O)(O)OCC1OC(n2cc(F)c(=O)[nH]c2=O)CC1O)COP(=O)(O)OCC1OC(n2ccc(N)nc2=O)C(O)C1O (stereo not given) | > 79.3 µM (inactive) | 6.19 µM (inactive) | 6.46 µM (inactive) | 4.51 µM (inactive) | 6.49 µM (inactive) | 7.98 µM (inactive) | > 32.2 µM (inactive) | 1.95 µM (inactive) | 2.56 µM (inactive) | > 100 µM (inactive) | 60.7 µM (inactive) | 3.66 µM (inactive) | > 95.5 µM (inactive) | 0.925 µM (active) | 22.6 µM (inactive) | 0.863 µM (active) | 2.81 µM (inactive) | 15.6 µM (inactive) | 20.8 µM (inactive) | > 71.3 µM (inactive)
